≈ marks a conversion by molar mass, not a printed value.
Legend:
[1] = Evaluated for pharmacokinetic parameter urine recovery in rat at the dose 50 mg/kg ( 0-24 hr ); type: ADME, organism-based; design: dose 50 mg/kg; settings: read-out: UR
[2] = Evaluated for pharmacokinetic parameter urine recovery in mouse at the dose 20 mg/kg ( 0-24 hr ); type: ADME, organism-based; design: dose 20 mg/kg; settings: read-out: UR
[3] = Evaluated for pharmacokinetic parameter tmax in mouse at the dose 20 mg/kg; type: ADME, organism-based; design: dose 20 mg/kg; settings: in vivo
[4] = Evaluated for pharmacokinetic parameter half-life in mouse at the dose 20 mg/kg; type: ADME, organism-based; design: dose 20 mg/kg; settings: in vivo
[5] = Evaluated for pharmacokinetic parameter half-life in rat at the dose 50 mg/kg; type: ADME, organism-based; design: dose 50 mg/kg; settings: in vivo
[6] = Evaluated for pharmacokinetic parameter area under curve in mouse at the dose 20 mg/kg (0-4 hr); type: ADME, organism-based; design: time < 4 hr, dose 20 mg/kg; settings: in vivo
[7] = Evaluated for pharmacokinetic parameter Cmax in mouse at the dose 20 mg/kg; type: ADME, organism-based; design: dose 20 mg/kg; settings: in vivo
[8] = Evaluated for pharmacokinetic parameter tmax in rabbit at the dose 20 mg/kg; type: ADME, organism-based, Oryctolagus cuniculus; design: dose 20 mg/kg; settings: in vivo
[9] = Evaluated for pharmacokinetic parameter urine recovery in rabbit at the dose 20 mg/kg ( 0-24 hr ); type: ADME, organism-based, Oryctolagus cuniculus; design: dose 20 mg/kg; settings: read-out: UR
[10] = Evaluated for pharmacokinetic parameter half-life in rabbit at the dose 20 mg/kg; type: ADME, organism-based, Oryctolagus cuniculus; design: dose 20 mg/kg; settings: in vivo
[11] = Evaluated for pharmacokinetic parameter area under curve in rat at the dose 50 mg/kg ( 0-8 hr ); type: ADME, organism-based; design: time < 8 hr, dose 50 mg/kg; settings: in vivo
[12] = Evaluated for pharmacokinetic parameter area under curve in rabbit at the dose 20 mg/kg ( 0-4 hr ); type: ADME, organism-based, Oryctolagus cuniculus; design: time < 4 hr, dose 20 mg/kg; settings: in vivo
[13] = Evaluated for pharmacokinetic parameter Cmax in rabbit at the dose 20 mg/kg; type: ADME, organism-based, Oryctolagus cuniculus; design: dose 20 mg/kg; settings: in vivo
[14] = Evaluated for pharmacokinetic parameter Cmax in rat at the dose 50 mg/kg; type: ADME, organism-based; design: dose 50 mg/kg; settings: in vivo
[15] = Evaluated for pharmacokinetic parameter tmax in rat at the dose 50 mg/kg; type: ADME, organism-based; design: dose 50 mg/kg; settings: in vivo
[16] = tested on: Enterococcus hirae; test: Antibacterial activity against Enterococcus hirae ATCC 8043 was determined; type: functional
[17] = tested on: Escherichia coli; test: Antibacterial activity against Escherichia coli ATCC 25922 was determined; type: functional
[18] = tested on: Escherichia coli; test: Antibacterial activity against Escherichia coli NIHJ JC-2 was determined; type: functional
[19] = tested on: Enterobacter cloacae; test: Antibacterial activity against Enterobacter cloacae 963 was determined; type: functional
[20] = tested on: Klebsiella aerogenes; test: Antibacterial activity against Enterobacter aerogenes IFO 13048 was determined; type: functional
[21] = tested on: Klebsiella pneumoniae; test: Antibacterial activity against Klebsiella pneumoniae IFO 3317 was determined; type: functional
[22] = tested on: Moraxella catarrhalis; test: Antibacterial activity against M(B). catarrhalis AtCC 25238 was determined; type: functional
[23] = tested on: Micrococcus luteus; test: Antibacterial activity against Micrococcus luteus ATCC 9341 was determined; type: functional
[24] = tested on: Morganella morganii; test: Antibacterial activity against Morganella morganii IID 602 was determined; type: functional
[25] = tested on: Proteus vulgaris; test: Antibacterial activity against Proteus vulgaris HX-19 was determined; type: functional
[26] = tested on: Proteus mirabilis; test: Antibacterial activity against Proteus mirabilis IFO3849 was determined; type: functional
[27] = tested on: Pseudomonas aeruginosa; test: Antibacterial activity against Pseudomonas aeruginosa NCTC 10490 was determined; type: functional
[28] = tested on: Providencia rettgeri; test: Antibacterial activity against Providencia rettgeri IFO3850 was determined; type: functional
[29] = tested on: Staphylococcus aureus; test: Antibacterial activity against Staphylococcus aureus 209P-JC was determined; type: functional
[30] = tested on: Staphylococcus aureus; test: Antibacterial activity against Staphylococcus aureus ATCC 25923 was determined; type: functional
[31] = tested on: Serratia marcescens; test: Antibacterial activity against Serratia marcescens IID 618 was determined; type: functional
[32] = tested on: Staphylococcus epidermidis; test: Antibacterial activity against Staphylococcus epidermidis IID 866 was determined; type: functional
[33] = tested on: Staphylococcus aureus; test: Antibacterial activity against Staphylococcus aureus Smith was determined; type: functional
[34] = Evaluated for pharmacokinetic parameter area under curve in rat at the dose 50 mg/kg (0-8 hr); type: ADME, organism-based; design: time < 8 hr, dose 50 mg/kg; settings: in vivo
[35] = Evaluated for pharmacokinetic parameter area under curve in rabbit at the dose 20 mg/kg (0-4 hr ); type: ADME, organism-based, Oryctolagus cuniculus; design: time < 4 hr, dose 20 mg/kg; settings: in vivo
[36] = tested on: Haemophilus influenzae; test: Antibacterial activity against Haemophilus influenzae ATCC 19418 was determined; type: functional
[37] = tested on: Klebsiella pneumoniae; test: Antibacterial activity against Klebsiella pneumoniae IFO 331 was determined; type: functional
[38] = tested on: Moraxella catarrhalis; test: Antibacterial activity against M(B). catarrhalis ATCC 25238 was determined; type: functional
[39] = tested on: Micrococcus luteus; test: Antibacterial activity against Micrococcus […] determined; type: functional
[40] = tested on: Streptococcus pneumoniae; test: Antibacterial activity against Streptococcus pneumoniae IID 553 was determined; type: functional

| dose excreted [1] [%] | dose excreted [2] [%] | Tmax [3] [h] | half-life [4] [h] | half-life [5] [h] | AUC at 4 h [6] [ng·h/mL] | Cmax [7] [ng/mL] | Tmax [8] [h] | dose excreted [9] [%] | half-life [10] [h] | Cmax [13] [ng/mL] | MIC [16] [µg/mL] | MIC [17] [µg/mL] | MIC [18] [µg/mL] | MIC [24] [µg/mL] | MIC [26] [µg/mL] | MIC [28] [µg/mL] | MIC [29] [µg/mL] | MIC [31] [µg/mL] | MIC [32] [µg/mL] | SMILES | further results |
| --- | --- | --- | --- | --- | --- | --- | --- | --- | --- | --- | --- | --- | --- | --- | --- | --- | --- | --- | --- | --- | --- |
| 9.5 | 42.8 | 0.5 | 2.7 | 1.8 | 62000 | 20500 | 1 | 17.2 | 2.3 | 2400 | – | – | – | – | – | – | – | – | – | CC(C)(C)C(=O)OCOC(=O)C1=C(/C=C\c2csnn2)CSC2C(NC(=O)/C(=N\O)c3csc(N)n3)C(=O)N12 (stereo not drawn) | AUC at 8 h [11]: 37900 ng·h/mL; AUC at 4 h [12]: 10500 ng·h/mL; Cmax [14]: 15200 ng/mL; Tmax [15]: 1 h |
| – | – | – | – | – | – | – | – | – | – | – | 100 (≈ 203 µM) | 0.39 (≈ 0.79 µM) | 0.39 (≈ 0.79 µM) | 0.1 (≈ 0.203 µM) | 0.1 (≈ 0.203 µM) | ≤ 0.006 | 0.78 (≈ 1.58 µM) | 0.39 (≈ 0.79 µM) | 0.2 (≈ 0.405 µM) | CO/N=C(\C(=O)NC1C(=O)N2C(C(=O)O)=C(/C=C\c3csnn3)CSC12)c1csc(N)n1 (stereo not drawn) | MIC [19]: 0.39 µg/mL (≈ 0.79 µM); MIC [20]: 0.78 µg/mL (≈ 1.58 µM); MIC [21]: 0.012 µg/mL (≈ 0.0243 µM); MIC [22]: 0.025 µg/mL (≈ 0.0507 µM); MIC [23]: 0.05 µg/mL (≈ 0.101 µM); MIC [25]: ≤ 0.006 µg/mL; MIC [27]: 50 µg/mL (≈ 101 µM); MIC [30]: 0.78 µg/mL (≈ 1.58 µM); MIC [33]: 0.39 µg/mL (≈ 0.79 µM) |
| – | – | – | – | – | – | – | – | – | – | – | 25 (≈ 50.7 µM) | 0.2 (≈ 0.405 µM) | 0.1 (≈ 0.203 µM) | 0.05 (≈ 0.101 µM) | 0.1 (≈ 0.203 µM) | ≤ 0.006 | 0.2 (≈ 0.405 µM) | 0.78 (≈ 1.58 µM) | 0.2 (≈ 0.405 µM) | Cc1nnsc1/C=C\C1=C(C(=O)O)N2C(=O)C(NC(=O)/C(=N\O)c3csc(N)n3)C2SC1 (stereo not drawn) | MIC [21]: 0.05 µg/mL (≈ 0.101 µM) |
| 13.2 | 10 | 1 | 0.6 | 1.5 | 10000 | 2500 | 1 | 64.2 | 1.9 | 5800 | 100 (≈ 253 µM) | 0.39 (≈ 0.986 µM) | 0.39 (≈ 0.986 µM) | 6.25 (≈ 15.8 µM) | 0.2 (≈ 0.506 µM) | ≤ 0.006 | 0.39 (≈ 0.986 µM) | 1.56 (≈ 3.95 µM) | 0.1 (≈ 0.253 µM) | C=CC1=C(C(=O)O)N2C(=O)[C@@H](NC(=O)/C(=N\O)c3csc(N)n3)[C@H]2SC1 [CEFDINIR] | AUC at 8 h [34]: 13200 ng·h/mL; AUC at 4 h [35]: 64200 ng·h/mL; Cmax [14]: 6000 ng/mL; MIC [19]: 0.78 µg/mL (≈ 1.97 µM); MIC [20]: 1.56 µg/mL (≈ 3.95 µM); MIC [36]: 0.39 µg/mL (≈ 0.986 µM); MIC [37]: 0.1 µg/mL (≈ 0.253 µM); MIC [38]: 0.2 µg/mL (≈ 0.506 µM); MIC [39]: 0.05 µg/mL (≈ 0.126 µM); MIC [25]: 0.39 µg/mL (≈ 0.986 µM); MIC [27]: > 100 µg/mL; MIC [40]: 0.1 µg/mL (≈ 0.253 µM); MIC [30]: 0.39 µg/mL (≈ 0.986 µM); Tmax [15]: 2 h; MIC [33]: 0.2 µg/mL (≈ 0.506 µM) |

Source: ChEMBL document CHEMBL1127135, “Synthesis and biological properties of 3-[()-2-(1,2,3-Thiadiazolyl)ethenyl]-substituted cephalosporins and related compounds: new oral cephalosporins” (Bioorg Med Chem Lett, 1993)
